{"source": "patent US5541190A", "about": "“Benzo(F)quinolinones” (priority 1995, dated 1996)"}
{"biological_target": "T1, 5α-reductase (Homo sapiens, UniProt P18405)", "T1 construct": "host or cells: Hs68 human genital skin fibroblasts", "T1 sequence (P18405 1-259)": "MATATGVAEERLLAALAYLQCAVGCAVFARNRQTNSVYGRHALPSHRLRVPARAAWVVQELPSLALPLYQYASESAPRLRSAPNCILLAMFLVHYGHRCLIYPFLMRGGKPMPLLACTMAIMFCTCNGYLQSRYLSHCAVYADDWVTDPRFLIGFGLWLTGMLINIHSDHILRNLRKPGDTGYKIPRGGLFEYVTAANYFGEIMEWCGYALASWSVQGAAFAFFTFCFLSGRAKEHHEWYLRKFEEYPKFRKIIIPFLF", "test": "Inhibition of 5α-reductase activity (testosterone to 5α-dihydrotestosterone conversion) in Hs68 human genital skin fibroblasts", "assay_type": "cell-based", "conditions": "0.316 μM test compound, 12 μM testosterone substrate, four hours", "method": "(§1) Cell Culture:5α-Reductase activity was measured using Hs68 human genital skin fibroblasts which were originally purchased from the American Type Culture Collection (Rockville, Md.). The cells were grown in Dulbecco's Modified Eagle's Medium (DMEM) plus 10% stripped fetal bovine serum which was supplemented with amphotericin B (0.25 mg/ml) and gentamicin (25.0 mg/ml) (GIBCO, Grand Island, N.Y.). The serum was stripped of endogenous steroids by incubation with dextran-coated charcoal prior to its addition to the media. The cells were maintained at 37° C. in an atmosphere of 95% air, 5% CO2 and were passaged every 7-10 days by exposure to a trypsin-EDTA solution (0.025% trypsin, 0.265 mM EDTA). Prior to the assay the Hs68 cells were harvested and plated in Falcon 6-well plates (Becton Dickinson Labware, Lincoln Park, N.J.) at a density of 6×10^4 cells per well. The cells were allowed to grow for 4-5 days or until they reached approximately 80% confluence.\n(§2) Assay Method I:The substrate was prepared by dissolving unlabeled testosterone (Sigma Chemical Co., St. Louis, Mo.) in absolute ethanol followed by the addition of [7-^3 H (N)]-testosterone (23.3 Ci/mmole, New England Nuclear, Boston, Mass.). The steroid solution was taken to dryness under a stream of nitrogen and then reconstituted in media.\n(§3) Assay Method II:The substrate used for this method was [^14 C]-testosterone (50 mCi/mmol) (New England Nuclear, Boston, Mass.). An aliquot of the substrate was taken to dryness under a stream of nitrogen. After the addition of 30 μl of ethanol, the testosterone was dissolved in an appropriate volume of media.\n(§4) Sample Preparation:The test compounds were brought up in absolute ethanol in order to achieve the desired concentration. Subsequent dilutions of the test compounds with media were performed by the Biomek 1000 Automated Laboratory Workstation (Beckman Instruments, Palo Alto, Calif.). The existing media in the sample wells was aspirated and replaced with fresh media. Test compound was then added to the wells followed by the addition of 0.5 ml of substrate. The volume of the incubation mixture was maintained at 2.0 ml. The final substrate concentration was 12 μM. The concentration of the test compounds ranged from 0.001-150 μM. An additional three wells (background) containing media and substrate but no cells were also included to account for the non-enzymatic metabolism of the substrate. The plates were returned to the incubator and incubated for four hours.\n(§5) At the end of the incubation the media was collected and transferred to an extraction tube containing 5 ml of toluene-ethanol (9:1), to which has been added 20-250 μg each. of unlabeled carrier steroids (estriol, estradiol, estrone, 5α-androstan-3α,17β-diol, 5α-androstan-3β,17β-diol, -androstene-3,17-dione, 5α-androstan-3,17-dione, testosterone, and 5α-dihydrotestosterone) (Steraloids, Inc., Wilton, N.H.). In the case of Assay Method I the extraction tube also contained 1,000 and 10,000 dpm of [4-^14 C]-dihydrotestosterone (50-60 mCi/mmol) and [4-^14 C]-testosterone (50 mCi/mmol) (New England Nuclear, Boston, Mass.), respectively. The [^14 C]-steroids were included as recovery standards to quantify procedural losses. A small amount of NaCl was also added to the extraction tubes to prevent foaming. The samples were vortexed for approximately 30 seconds and then centrifuged for 10 minutes at 500×g. The organic phase was collected and the samples taken to dryness, redissolved in dichloromethane-methanol (9:1) and were analyzed by thin layer chromatography using one of the methods described below.\n(§6) Chromatography Method I (two-dimensional):The extracted samples were appled to silica gel 60F254, 0.25 mm thick, thin layer chromatography plates (EM Science, Cincinnati, Ohio). The plates were developed in the first dimension with a solvent system containing dichloromethaneethyl acetate-methanol-acetic acid (160:38:1.5:0.5, Mallinckrodt Inc., Paris, Ky.).", "units": {"inhibition at 0.316 µM": "%"}}
{"smiles": "COc1ccc(CN2C(=O)CC[C@@]3(C)c4ccc(Cl)cc4CC[C@H]23)cc1", "note": "(relative stereo) [Example 44, Trans-4-(4-methoxybenzyl)-8-chloro-10b-methyl-1,2,3,4,4a,5,6,10b-octahydrobenzo[f]quinolin-3-one]", "inhibition at 0.316 µM": 5.7}
{"smiles": "C[C@]12CCC(=O)N[C@@H]1CCc1cc(Cl)ccc12", "note": "(relative stereo) [Example 40, Trans-8-chloro-10b-methyl-1,2,3,4,4a,5,6,10-octhydrobenzo[f]-quinolin-3-one]", "inhibition at 0.316 µM": 25.6}
{"smiles": "C[C@@H]1C[C@@H]2c3ccc(Cl)cc3CC[C@H]2N(C)C1=O", "note": "(relative stereo) [Example 26A, trans-dl-8-chloro-2-(α-methyl)-4-methyl-1,2,3,4,4a,5,6,10b-octahydrobenzo[f]quinolin-3-one]", "inhibition at 0.316 µM": 82.6}
{"smiles": "CN1C(=O)CC[C@H]2c3ccc(Br)cc3C(C)(C)C[C@H]21", "note": "(relative stereo) [Example 29, cis-dl-8-bromo-4,6,6-trimethyl-1,2,3,4,4a,5,6,10b-octahydrobenzo[f]quinolin-3-one]", "inhibition at 0.316 µM": 56.1}
{"smiles": "C[C@H]1C[C@@H]2c3ccc(Cl)cc3CC[C@H]2N(C)C1=O", "note": "(relative stereo) [Example 26B, trans-dl-8-chloro-2-(β-methyl)-4-methyl-1,2,3,4,4a,5,6,10b-octahydrobenzo[f]quinolin-3-one]", "inhibition at 0.316 µM": 76.4}
{"smiles": "CN1C(=O)CC[C@H]2c3ccc(Br)cc3C(C)(C)C[C@@H]21", "note": "(relative stereo) [Example 28, trans-dl-8-bromo-4,6,6-trimethyl-1,2,3,4,4a,5,6,10b-ocathydrobenzo[f]quinolin-3-one]", "inhibition at 0.316 µM": 78}
{"biological_target": "T1, 5α-reductase", "test": "Inhibition of 5α-reductase activity (testosterone to 5α-dihydrotestosterone conversion) in Hs68 human genital skin fibroblasts", "assay_type": "cell-based", "conditions": "1.00 μM test compound, 12 μM testosterone substrate, four hours", "method": "as §1, §2, §3, §4, §5, §6", "units": {"inhibition at 1 µM": "%"}}
{"smiles": "CN1C(=O)CC[C@@]2(C)c3ccccc3CC[C@H]12", "note": "(relative stereo) [Example 37, trans-dl-4,10b-dimethyl-1,2,3,4,4a,5,6,10b-octahydrobenzo[f]quinolin-3-one]", "inhibition at 1 µM": 40}
{"smiles": "CN1C(=O)CC[C@H]2c3ccc(Cl)cc3CC[C@@H]21", "note": "(relative stereo) [Example 6, trans-dl-8-chloro-4-methyl-1,2,3,4,4a,5,6,10b-octahydrobenzo[f]quinolin-3-one]", "inhibition at 1 µM": 100}
{"smiles": "CN1C(=O)CC[C@H]2c3ccccc3CC[C@@H]21", "note": "(relative stereo) [Example 12, trans-dl-4-methyl-1,2,3,4,4a,5,6,10b-octahydrobenzo[f]quinolin-3-one]", "inhibition at 1 µM": 78.7}
{"smiles": "CN1C(=O)CC[C@H]2c3ccccc3CC[C@H]21", "note": "(relative stereo) [Example 13, cis-dl-4-methyl-1,2,3,4,4a,5,6,10b-octahydrobenzo[f]quinolin-3-one]", "inhibition at 1 µM": 32}
{"smiles": "CN1C(=O)CC[C@]2(C)c3ccc(Cl)cc3CC[C@H]12", "note": "(relative stereo) [Example 35, cis-dl-8-chloro-4,10b-dimethyl-1,2,3,4,4a,5,6,10b-octahydrobenzo[f]quinolin-3-one]", "inhibition at 1 µM": 76.2}
{"biological_target": "T1, 5α-reductase", "test": "Inhibition of 5α-reductase activity (testosterone to 5α-dihydrotestosterone conversion) in Hs68 human genital skin fibroblasts", "assay_type": "cell-based", "conditions": "15.00 μM test compound, 12 μM testosterone substrate, four hours", "method": "as §1, §2, §3, §4, §5, §6", "units": {"inhibition at 15 µM": "%"}}
{"smiles": "C[C@]12CCC(=O)N[C@H]1CCc1cc(Cl)ccc12", "note": "(relative stereo) [Example 41, cis-8-chloro-10b-methyl-1,2,3,4,4a,5,6,10-octahydrobenzo[f]quinolin-3-one]", "inhibition at 15 µM": 58.4}
{"smiles": "O=C1CC[C@H]2c3cc([N+](=O)[O-])ccc3CC[C@@H]2N1", "note": "(relative stereo) [Example 46, trans-dl-9-nitro-1,2,3,4,4a,5,6,10b-octahydrobenzo[f]quinolin-3-one]", "inhibition at 15 µM": 69.9}
